Data as given in ChEMBL document CHEMBL3507680, “University of Dundee, Gates Library screen for HepG2 cell viability”.

Assay: Human HepG2 cell viability assay in 384 well format
Assay type: toxicity, cell-based
Set-up: dose 125 nL, time 70.5 hour; concentration not given beside the values
Details: HepG2 cells, read-out: Inhibition

| Compound | cytotoxicity at 70.5 h |
| --- | --- |
| O=C(c1ccco1)N1CC[C@@H]2[C@H]1CCC(=O)N2c1ccccc1 | -15.1% |
| Cn1cccc1C(=O)NCc1cn2c(n1)CN(c1ncccn1)CC2 | -12.8% |
| CCS(=O)(=O)N1CCC2(CN(Cc3ccc(C)o3)C2)C1 | -13.4% |
| CCS(=O)(=O)N1CCC2(CCN(Cc3ccc(C)o3)C2)C1 (centres undefined) | 13% |
| Cn1cccc1C(=O)NCc1cn2c(n1)CN(S(=O)(=O)C1CC1)CC2 | -10.3% |
| COCC1CN(C(=O)c2ccco2)Cc2nccn2C1 (centres undefined) | -9.63% |
| COCCC(=O)N1CCN(CC2CC2)c2ncccc2C1 | 8.88% |
| COCCC(=O)N1CCc2nc(N3CCOCC3)nc(NC(C)C)c2C1 | -17% |
| O=C(C1CCOCC1)N1CCN(CC2CC2)c2ncccc2C1 | -14.2% |
| COCCC(=O)N1CCC2(CN(Cc3cccc(Cl)c3)C2)C1 | 33.3% |
| O=c1ccc2c(n1CC1CC1)CCC(NS(=O)(=O)C1CC1)C2 (centres undefined) | 21.2% |
| O=C(N1CCCC1)N1CCCC2(CCN(c3ccsc3)C2=O)C1 (centres undefined) | -7.85% |
| O=C(NC[C@]12COC[C@H]1CN(Cc1cccc(F)c1)C2)c1ccco1 | -12.4% |
| Cc1ccc2c(n1)N(CCN(C)C)CCN(C(=O)c1ccsc1)C2 | -5.53% |
| COC(=O)CCC(=O)N1CCC2(CN(Cc3cccc(Cl)c3)C2)C1 | 6.9% |
| O=C(Cc1ccc(F)cc1)N1CCn2c(Cn3cncn3)cnc2C1 | -1.65% |
| CCC(O)C1CCN(C(=O)Nc2nc(-c3ccccc3)ns2)CC1 (centres undefined) | 13.7% |
| Cc1ccsc1CCNC(C)C(=O)NC1CCCC1 (centres undefined) | -10.7% |
| O=C1CCCN1CCc1noc(-c2ccsc2)n1 | -7.91% |
| CN1CCCC2(CCN(c3cccc(C(F)(F)F)n3)C2)C1=O (centres undefined) | -6.46% |
| CC(C)C(=O)N1CCN(C(=O)c2cc(Cl)no2)[C@H]2CS(=O)(=O)C[C@H]21 | -2.12% |
| CC(C)=CCN1CCN(C(=O)c2cc(C)n[nH]2)[C@H]2CS(=O)(=O)C[C@H]21 | 0.726% |

| Compound | cytotoxicity at 70.5 h |
| --- | --- |
| O=C(CCc1cc2n(n1)CCCNC2)NCCCSC1CCCCC1 | -8.87% |
| O=C(c1cnc(C2CC2)nc1)N1CCC(N2CCC(O)CC2)CC1 | 14.2% |
| O=C(CN1CCC(c2ccccc2)CC1)NCc1cc2n(n1)CCNC2 | -10.6% |
| CSc1cccc(CN2CCC(CCC(=O)Nc3ccccc3)CC2)c1 | -8.78% |
| Cn1ccc(NC(=O)CN2C[C@H]3CC[C@@H]2CN(Cc2ccccn2)C3)n1 | -3.7% |
| CCCc1nnc2sc(C3CCN(C4CCN(C)CC4)CC3)nn12 | -12.7% |
| CN(C)C(C(=O)NCCSc1ncn[nH]1)c1cccc(F)c1 (centres undefined) | 28.8% |
| CN1CSC[C@H]1C(=O)N1CCN(Cc2cccc(F)c2)CC1 | 8.84% |
| CN(C)C(=O)N1C[C@@H]2CC[C@H](C1)N(C(=O)c1c(Cl)cccc1Cl)C2 | -13.7% |
| CC(=O)NCC(=O)N1CCCC2(CCC(=O)N(CCc3c[nH]cn3)C2)C1 (centres undefined) | 10.1% |
| CC1(C)[C@H]2CC=C(CN3CCCn4nc(CCC(=O)O)cc4C3)[C@@H]1C2 | -14.3% |
| Cc1ncsc1CCN(C)C(=O)C(c1cccnc1)N1CCOCC1 (centres undefined) | -5.13% |
| CCCN1CCN(Cc2nc3ccccc3[nH]2)[C@H]2CS(=O)(=O)C[C@H]21 | -3.06% |
| CCn1ccnc1CN(C)Cc1nc(Cc2ccccc2Cl)no1 | 0.631% |
| Cn1c(Cn2ccnc2)nnc1C1CCN(C(=O)c2cccnc2)CC1 | -10.4% |
| CCC(CO)N(Cc1ccccn1)Cc1c[nH]nc1-c1ccc(F)cc1 (centres undefined) | -6.02% |
| O=C(Cn1cccn1)N1CCC(Cn2cc(-c3ccsc3)nn2)CC1 | -10.6% |
| CCc1nc(CCn2ccnc2-c2nccn2C)no1 | -7.8% |
| OCC1CCCN(c2ncnc3c2Cc2ccccc2OC3)C1 (centres undefined) | -5.22% |
| Cc1ncsc1CCC(=O)NC1CCN(c2ncccc2C#N)CC1 | -13.1% |
| COCc1noc(-c2ccc(N3CCCCC3COC)nc2)n1 (centres undefined) | -11.8% |
| FC(F)(F)c1cccc(OC2CCN(Cc3ccccn3)CC2)c1 | -0.484% |

| Compound | cytotoxicity at 70.5 h |
| --- | --- |
| CCc1ncc(-c2cn(CCSc3ncn[nH]3)nn2)cn1 | -11.1% |
| COc1ccc(NC(=O)c2cccc(CN3CCCC3C)c2)cc1OC (centres undefined) | -2.34% |
| COc1ccccc1C(=O)C1CCCN(c2cc(C#N)ccn2)C1 (centres undefined) | -1.63% |
| COCc1noc(-c2ccc(N3CCCC3c3nccs3)nc2)n1 (centres undefined) | 12% |
| CCCOCC(=O)N1CCC2(CC1)c1nc[nH]c1CCN2S(C)(=O)=O | -5.48% |
| O=C(CN1CCN(c2ncnc3c2CCNCC3)CC1)N1CCCCC1 | -5.29% |
| Cc1cc(-c2ccc(C(C)N3CCOCC3)cc2)cnc1N (centres undefined) | -4.56% |
| CCc1n[nH]c(SCC(=O)N2CCc3[nH]nc(C4CCC4)c3C2)n1 | -0.161% |
| COc1ccc(CCC2CCCN(C(=O)CCc3cc(O)no3)C2)cc1 (centres undefined) | -4.3% |
| CC(=O)N[C@@H]1Cc2ccccc2[C@H]1Nc1cc(C2CC2)ncn1 | 7.02% |
| CCNc1ncc(C(=O)N2CCc3c(nc(C)nc3N(C)C)C2)cn1 | 25.4% |
| CS(=O)(=O)NCc1cc2n(n1)CCCN(Cc1ccc(Cl)s1)C2 | -9.1% |
| CN(Cc1ccc(-n2cccn2)cc1)Cc1ncc[nH]1 | -9.75% |
| CC(C)CCn1cc(C(C(=O)O)N2CCSCC2)cn1 (centres undefined) | -12.4% |
| COc1cccc(OCC2CCCN(C(=O)CCc3cc(O)no3)C2)c1 (centres undefined) | -21.1% |
| CC(C)c1cc(NCC2(N3CCOCC3)CCCCC2)ncn1 | 45.2% |
| CC(C)(C)c1cc(=O)[nH]c(-c2ccccc2CN2CCC[C@@H](O)C2)n1 | -2.12% |
| COCCc1noc(-c2cn(Cc3ccc(OC)cc3)nn2)n1 | 7.6% |
| CCCc1cc(C(=O)N2Cc3ccccc3C2)[nH]n1 | 6.06% |
| O=C1CC(C(=O)O)C2(CCN(C(=O)Nc3ccccc3Cl)CC2)N1 (centres undefined) | -2.72% |
| O=C(Cn1ccc2ncccc2c1=O)N1CCSCC1 | 29.2% |
| CN(C)CC1(O)CCCN(C(=O)CCc2nc3cccnc3n2C)C1 (centres undefined) | -9.56% |

| Compound | cytotoxicity at 70.5 h |
| --- | --- |
| c1cncc(NCCNC2CCCNC2)c1 (centres undefined) | 2.18% |
| COCCn1cnnc1CCn1ccnc1-c1ccccc1Cl | 5.9% |
| O=C1NCCc2c1sc1ccc(C(=O)N3CC[C@H](CO)[C@H](O)C3)cc21 | -2.24% |
| CN1CCC(N(CCc2ccccc2)C(=O)c2ccoc2)CC1 | -7.47% |
| COc1cccc(C(=O)N2CCN(C(=O)CCCc3cn[nH]c3)CC2)c1 | -2.77% |
| Cc1nc(O)cc(CN2CC=C(c3cnn(C(C)(C)C)c3)CC2)n1 | -10.5% |
| CCC(C)N(Cc1cccnc1)Cc1cc2c(cc1OC)OCO2 (centres undefined) | 0.778% |
| O=C(c1cccc(S(=O)(=O)NC[C@@H]2C[C@H](F)CN2)c1)N1CCCCC1 | 4.39% |
| O=C(c1ccc2c(c1)CCC2)N1CCN(c2ccc(Cl)cn2)CC1 | 6.01% |
| Cc1nn(CCO)c(C)c1CN1CCN(C2CCCCC2)C(=O)C1 | 0.129% |
| OC[C@@H]1CCCN1c1ccc(-c2nc(COc3ccccc3)no2)cn1 | 1.55% |
| CCC(C)N(Cc1ccsc1)C(=O)c1ccc2[nH]nnc2c1 (centres undefined) | 24.9% |
| O=C(c1ccncc1F)N1CCCC(c2nccn2CC2CCC2)C1 (centres undefined) | -21.7% |
| CC(C)c1noc(-c2ccc(NCCCN3CCCC(O)C3)nc2)n1 (centres undefined) | -6.37% |
| O=C(NCCn1ccnc1-c1cc2n(n1)CCNC2)c1ccncc1 | -5.81% |
| O=C(c1cn2cc(Cl)ccc2n1)N1CCC(CCn2cccn2)CC1 | 19.9% |
| CN(C)C(C(=O)N1CCN(CC(F)(F)F)CC1)c1ccccc1F (centres undefined) | -1.96% |
| Cc1cc(C)n(-c2ccc(C(=O)NCC(CO)Cc3cccs3)cc2)n1 (centres undefined) | -8% |
| Cc1cc(C(=O)N2CCc3ncnc(N4CCSCC4)c3CC2)[nH]n1 | -5.82% |
| COc1nc2ccccc2cc1C1CC(=O)Nc2n[nH]c(C3CCC3)c21 (centres undefined) | 4.02% |
| CNCCN1C(=O)CC[C@H]2CN(c3cnc4ccccc4n3)CC[C@H]21 | -2.89% |
| Cc1ccc2nc(C)c(C)c(C(=O)N[C@H]3COC[C@@H]3N3CCCC3)c2c1 | -3.96% |

| Compound | cytotoxicity at 70.5 h |
| --- | --- |
| COc1ncccc1C(=O)N1CCC(c2nc3c(C)cccc3[nH]2)CC1 | -6.55% |
| CCN(CCn1cccn1)Cc1nc(-c2ccoc2)oc1C | 14% |
| Cc1ccc(CN2CCc3c(nnn3C)C2COCc2ccccc2)s1 (centres undefined) | -7.66% |
| Cc1occc1C(=O)N1Cc2nccn2CC(CN(C)C)C1 (centres undefined) | -8.13% |
| O=C(c1ccco1)N1CCOC2(COCCN(c3ncccn3)C2)C1 (centres undefined) | -14.8% |
| COc1ccc(CN2CCCn3nnc(COCC4CC4)c3C2)cc1 | -12.2% |
| Fc1ccc(CN2CCCn3nnc(COCC4CC4)c3C2)cc1 | 16.6% |
| COCCN1CCN(C(=O)N2CCCC2)Cc2ccc(C)nc21 | 24.9% |
| COCCC(=O)N1CCC2(CCN(Cc3cccc(F)c3)CC2)CC1 | -5.26% |
| COCCC(=O)N1CCC2(CCN(Cc3ccc(C)cc3)CC2)C1 | -7.89% |
| O=C(NC1CCC1)[C@@H]1C[C@@H]2CCN(CCc3ccccc3)C[C@H]2O1 | -8.97% |
| O=C1N(c2ccsc2)CCC12CCCN(CC1CC1)C2 (centres undefined) | -4.66% |
| CNC(=O)[C@H]1C[C@@H]2CCN(CCc3ccccc3)C[C@@H]2O1 | -4.11% |
| O=C(NC[C@]12COC[C@H]1CN(CC1CCOCC1)C2)c1ccco1 | -3.33% |
| Cc1ccsc1CN1C[C@@H]2COC[C@]2(CNC(=O)c2ccco2)C1 | -6.31% |
| CC(=O)NCC(=O)N1CCN(CCN(C)C)c2ncccc2C1 | -14.2% |
| CN(C)C(=O)CN1CCC2(CCCN(Cc3cccnc3)C2)C1=O (centres undefined) | -12% |
| c1cncc(COCC2CC[C@H]3[C@H](CCN3CC3CCOCC3)O2)c1 (some centres undefined) | 24.3% |
| O=C(N1CCCC1)N1CCC2(CC1)COCCN(Cc1cccnc1)C2 | -4.16% |
| O=C(c1ccsc1)N1CCC2(CC1)COCCN(Cc1ccncc1)C2 | -7.46% |
| O=C(NC[C@]12COC[C@H]1CN(Cc1ccncc1)C2)c1ccno1 | -7.21% |
